The test system of one assay is S. aureus ATCC 29213. The experiment in a line: Minimum Inhibitory Concentration (MIC) assay, S. aureus. It counts as cell-based. The settings on record: Staphylococcus aureus, ATCC29213; broth microdilution; read-out: MIC against S. Aureus. On the procedure:
(§1) The antimicrobial activity of the compounds of the invention may be evaluated by a number of methods, including the following visual minimum inhibitory concentration (MIC) assay. This assay determines the minimum concentration of compound required to inhibit growth of a bacterial strain.
(§2) Minimum Inhibitory Concentration (MIC) Assay
(§3) Whole-cell antibacterial activity is determined by broth microdilution using conditions recommended by the NCCLS (see National Committee for Clinical Laboratory Standards. 2001. Performance standards for antimicrobial susceptibility testing: 11th informational supplement. Vol. 21, no. 1, M100-S11. National Committee for Clinical Laboratory Standards, Wayne, Pa.). Test compounds are dissolved in DMSO and diluted 1:50 in Mueller-Hinton II broth (Becton-Dickinson) to produce a 256 μg/ml stock solution. In a 96-well microtiter plate, the compound solution is serially two-fold diluted in Mueller-Hinton II broth. After the compounds are diluted, a 50 μl aliquot of the test organism (˜1×10^6 cfu/mL) is added to each well of the microtiter plate. The final test concentrations ranges from 0.125-128 μg/mL. Inoculated plates are incubated in ambient air at 37° C. for 18 to 24 hours. The organisms selected for testing included laboratory strains S. aureus ATCC 29213 and E. coli ATCC 25922 (strains purchased from American Type Culture Collection, Manassas, Va.), S. aureus FQR700699, and Paeruginosa 27853. The minimum inhibitory concentration (MIC) is determined as the lowest concentration of compound that inhibited visible growth of the test organism.

The subject of the next assay is E. coli ATCC 25922. The experiment in a line: Minimum Inhibitory Concentration (MIC) assay, E. coli. It counts as cell-based. The conditions noted are these: Escherichia coli, ATCC25922; broth microdilution; read-out: MIC against E. coli. Here is the method: as §1, §2, §3

Bounds are passed on as bounds.

Regarding `COc1cc2c(=O)c3c(=O)[nH]sc3n(C3CC3)c2c(F)c1N1CC[C@@H](CN)C1` [Compound 85, (S)-7-(3-(aminomethyl)-pyrrolidin-1-yl)-9-cyclo-propyl-8-fluoro-6-methoxyiso-thiazolo[5,4-b]quinoline-3,4(2H,9H)-dione], the MIC in the assay on S. aureus ATCC 29213 and with E. coli ATCC 25922 was at most 1 µg/mL throughout.
Take `O=c1[nH]sc2c1c(=O)c1cc(F)c(N3CCSCC3)cc1n2C1CC1` [Compound 28, 9-cyclopropyl-6-fluoro-7-thiomorpho-linoiso-thiazolo[5,4-b]quinoline-3,4(2H,9H)-dione]: the MIC in the assay with S. aureus ATCC 29213 and with E. coli ATCC 25922 was at most 1 µg/mL each time.
As for `COc1c(N2CC[C@@H]([C@@H](C)N)C2)ccc2c(=O)c3c(=O)[nH]sc3n(C3CC3)c12` [Compound 110, 7-((R)-3-((R)-1-aminoethyl)-pyrrolidin-1-yl)-9-cyclo-propyl-8-methoxyiso-thiazolo[5,4-b]quinoline-3,4(2H,9H)-dione], in the assay with S. aureus ATCC 29213, the MIC was at most 1 µg/mL.
As for `CCn1c2cc(NCc3ccncc3)c(F)cc2c(=O)c2c(=O)[nH]sc21` [Compound 35, 9-ethyl-6-fluoro-7-(pyridin-4-ylmethylamino) isothiazolo[5,4-b]quinoline-3,4(2H,9H)-dione], the MIC in the assay on S. aureus ATCC 29213 and in the assay with E. coli ATCC 25922 was at most 1 µg/mL in each case.
Turning to `COc1c(N2CC[C@H](C(C)(C)N)C2)ccc2c(=O)c3c(=O)[nH]sc3n(C3CC3)c12` [Compound 60, (S)-7-(3-(2-aminopropan-2-yl)pyrrolidin-1-yl)-9-cyclopropyl-8-methoxyiso-thiazolo[5,4-b]quinoline-3,4(2H,9H)-dione], the MIC in the assay with S. aureus ATCC 29213 is at most 1 µg/mL.
As to `O=c1[nH]sc2c1c(=O)c1cc(F)c(N3CCOCC3)cc1n2C1CC1` [Compound 19, 9-cyclopropyl-6-fluoro-7-morpholino-isothiazolo[5,4-b]quinoline-3,4(2H,9H)-dione], the MIC with S. aureus ATCC 29213 and with E. coli ATCC 25922 was at most 1 µg/mL in each case.
`COc1cc2c(=O)c3c(=O)[nH]sc3n(C3CC3)c2c(F)c1N1CC[C@@H](C(C)(C)N)C1` [Compound 83, (R)-7-(3-(2-aminopropan-2-yl)pyrrolidin-1-yl)-9-cyclopropyl-8-fluoro-6-methoxyiso-thiazolo[5,4-b]quinoline-3,4(2H,9H)-dione]: the MIC in the assay with S. aureus ATCC 29213 and in the assay with E. coli ATCC 25922 was at most 1 µg/mL in each case.
In the case of `CN1CCN(c2cc3c(cc2F)c(=O)c2c(=O)[nH]sc2n3C2CC2)CC1` [Compound 21, 9-cyclopropyl-6-fluoro-7-(4-methyl-piperazin-1-yl)isothia-zolo[5,4-b]quinoline-3,4(2H,9H)-dione], the MIC with S. aureus ATCC 29213 and in the assay with E. coli ATCC 25922 was at most 1 µg/mL in each case.
Turning to `COc1c(N2CC(N)C2)c(F)cc2c(=O)c3c(=O)[nH]sc3n(C3CC3)c12` [Compound 105, 7-(3-amino-azetidin-1-yl)-9-cyclopropyl-6-fluoro-8-methoxyiso-thiazolo[5,4-b]quinoline-3,4(2H,9H)-dione], the MIC in the assay with S. aureus ATCC 29213 and in the assay on E. coli ATCC 25922 was at most 1 µg/mL each time.
Take `COc1c(N2CC[C@H](CN)C2)ccc2c(=O)c3c(=O)[nH]sc3n(C3CC3)c12` [Compound 90, (R)-7-(3-(aminomethyl)-pyrrolidin-1-yl)-9-cyclopropyl-8-methoxyiso-thiazolo[5,4-b]quinoline-3,4(2H,9H)-dione]: the MIC in the assay with S. aureus ATCC 29213 and in the assay with E. coli ATCC 25922 was at most 1 µg/mL each time.
In the case of `CCn1c2cc(N3CCSCC3)c(F)cc2c(=O)c2c(=O)[nH]sc21` [Compound 37, 9-ethyl-6-fluoro-7-thiomorpho-linoiso-thiazolo[5,4-b]quinoline-3,4(2H,9H)-dione], the MIC with S. aureus ATCC 29213 and in the assay with E. coli ATCC 25922 was at most 1 µg/mL throughout.
Take `COc1c(N2CC[C@@H](C(C)(C)N(C)C)C2)c(F)cc2c(=O)c3c(=O)[nH]sc3n(C3CC3)c12` [Compound 82, (R)-9-cyclo-propyl-7-(3-(2-(dimethyl-amino)propan-2-yl)pyrrolidin-1-yl)-6-fluoro-8-methoxyiso-thiazolo[5,4-b]quinoline-3,4(2H,9H)-dione]: the MIC in the assay with S. aureus ATCC 29213 and with E. coli ATCC 25922 was at most 1 µg/mL in each case.
On to `COc1c(N2CC[C@@H](N)C2)c(F)cc2c(=O)c3c(=O)[nH]sc3n(C3CC3)c12` [Compound 96, (R)-7-(3-amino-pyrrolidin-1-yl)-9-cyclopropyl-6-fluoro-8-methoxyiso-thiazolo[5,4-b]quinoline-3,4(2H,9H)-dione], for which the MIC in the assay with S. aureus ATCC 29213 was at most 1 µg/mL.
The same measure, in the same setting: under `COc1c(N2C[C@@H]3CCCN[C@@H]3C2)c(F)cc2c(=O)c3c(=O)[nH]sc3n(C3CC3)c12` [Compound 69, 9-cyclopropyl-6-fluoro-8-methoxy-7-((4aS,7aS)-octahydro-pyrrolo[3,4-b]pyridin-6-yl)isothia-zolo[5,4-b]quinoline-3,4(2H,9H)-dione] stands at most 1 µg/mL; under `COc1c(N2CCC(N)(CO)C2)c(F)cc2c(=O)c3c(=O)[nH]sc3n(C3CC3)c12` (stereo not shown) [Compound 109, 7-(3-amino-3-(hydroxy-methyl)-pyrrolidin-1-yl)-9-cyclo-propyl-6-fluoro-8-methoxyiso-thiazolo[5,4-b]quinoline-3,4(2H,9H)-dione], at most 1 µg/mL.
In the case of `COc1cc2c(=O)c3c(=O)[nH]sc3n(C3CC3)c2c(F)c1N1CCNCC1` [Compound 84, 9-cyclopropyl-8-fluoro-6-methoxy-7-(piperazin-1-yl)isothia-zolo[5,4-b]quinoline-3,4(2H,9H)-dione], in the assay with E. coli ATCC 25922, the MIC was at most 1 µg/mL.
As for `CCn1c2s[nH]c(=O)c2c(=O)c2cc(F)c(N3CCNCC3)c(OC)c21` [Compound 62, 9-ethyl-6-fluoro-8-methoxy-7-(piperazin-1-yl)isothia-zolo[5,4-b]quinoline-3,4(2H,9H)-dione], in the assay on S. aureus ATCC 29213, the MIC was at most 1 µg/mL.
For the molecule `CCn1c2cc(N3CCN(CCN(C)C)CC3)c(F)cc2c(=O)c2c(=O)[nH]sc21` [Compound 36, 7-(4-(2-(dimethyl-amino)ethyl)piperazin-1-yl)-9-ethyl-6-fluoroisothia-zolo[5,4-b]quinoline-3,4(2H,9H)-dione], the MIC in the assay with S. aureus ATCC 29213 and in the assay on E. coli ATCC 25922 was at most 1 µg/mL each time.
With `O=c1[nH]sc2c1c(=O)c1cc(F)c(N3CCC4(CC3)OCCO4)cc1n2C1CC1` [Compound 39], the MIC in the assay with S. aureus ATCC 29213 and with E. coli ATCC 25922 was at most 1 µg/mL each time.
For the molecule `O=c1[nH]sc2c1c(=O)c1cc(F)c(N3CCCC3)cc1n2C1CC1` [Compound 24, 9-cyclopropyl-6-fluoro-7-(pyrrolidin-1-yl)isothia-zolo[5,4-b]quinoline-3,4(2H,9H)-dione], the MIC in the assay with S. aureus ATCC 29213 is at most 1 µg/mL.
Consider `CN[C@@H]1CCN(c2ccc3c(=O)c4c(=O)[nH]sc4n(C4CC4)c3c2OC)C1` [Compound 99, (R)-9-cyclo-propyl-8-methoxy-7-(3-(methyl-amino)-pyrrolidin-1-yl)iso-thiazolo[5,4-b]quinoline-3,4(2H,9H)-dione], for which, in the assay with S. aureus ATCC 29213, the MIC is at most 1 µg/mL.
Still for that read-out and setting: under `CN(C(=O)OC(C)(C)C)C1CCN(c2cc3c(cc2F)c(=O)c2c(=O)[nH]sc2n3C2CC2)C1` (stereo not shown) [Compound 25, tert-butyl 1-(9-cyclopropyl-6-fluoro-3,4-dioxo-2,3,4,9-tetrahydroiso-thiazolo[5,4-b]quinolin-7-yl)pyrrolidin-3-yl(methyl) carbamate] stands at most 1 µg/mL; under `COc1c(N2CC[C@@H](C(C)NC3CCCC3)C2)c(F)cc2c(=O)c3c(=O)[nH]sc3n(C3CC3)c12` (stereo partly drawn) [Compound 113, (R)-7-(3-(1-(cyclopentyl-amino)ethyl)pyrrolidin-1-yl)-9-cyclopropyl-6-fluoro-8-methoxyiso-thiazolo[5,4-b]quinoline-3,4(2H,9H)-dione], at most 1 µg/mL; under `CN[C@@H]1CCN(c2c(F)cc3c(=O)c4c(=O)[nH]sc4n(C4CC4)c3c2OC)C1` [Compound 98, (R)-9-cyclo-propyl-6-fluoro-8-methoxy-7-(3-(methylamino)-pyrrolidin-1-yl)isothia-zolo[5,4-b]quinoline-3,4(2H,9H)-dione], at most 1 µg/mL.
On the same count and under the same terms, under `O=c1[nH]sc2c1c(=O)c1cc(F)c(N3CCCCC3)cc1n2C1CC1` [Compound 23, 9-cyclopropyl-6-fluoro-7-(piperidin-1-yl)isothia-zolo[5,4-b]quinoline-3,4(2H,9H)-dione] stands at most 1 µg/mL; under `COc1c(N2CC[C@@H](N)C2)ccc2c(=O)c3c(=O)[nH]sc3n(C3CC3)c12` [Compound 97, (R)-7-(3-amino-pyrrolidin-1-yl)-9-cyclopropyl-8-methoxyiso-thiazolo[5,4-b]quinoline-3,4(2H,9H)-dione], at most 1 µg/mL.
Same read-out and setting: the result for `CC[C@H](NC)[C@@H]1CCN(c2c(F)cc3c(=O)c4c(=O)[nH]sc4n(C4CC4)c3c2OC)C1` [Compound 91, 9-cyclopropyl-6-fluoro-8-methoxy-7-((R)-3-((S)-1-(methylamino)-propyl)pyrrolidin-1-yl)isothia-zolo[5,4-b]quinoline-3,4(2H,9H)-dione] reads at most 1 µg/mL; that for `COc1c(N2CC[C@@H](CN)C2)ccc2c(=O)c3c(=O)[nH]sc3n(C3CC3)c12` [Compound 65, (S)-7-(3-(aminomethyl)-pyrrolidin-1-yl)-9-cyclopropyl-8-methoxyiso-thiazolo[5,4-b]quinoline-3,4(2H,9H)-dione], at most 1 µg/mL.
